Eight compounds from US20220162561A1, “COMPOSITION FOR PROMOTING SECRETION OF EXTRACELLULAR VESICLES” (priority 2019, published 2022) can be followed below.

Common to all, as to assay type: cell-based
Data set [1] deals with mesenchymal stem cells derived from human umbilical cord matrix. As to the kind of experiment: Test Example 9: cell proliferation activity (cell viability), CellTiter-Glo. The procedure:
(§1) Mesenchymal stem cells derived from human bone marrow or mesenchymal stem cells derived from human umbilical cord matrix (#C-12974, #C-12971 manufactured by Takara Bio Inc.) were suspended in mesenchymal stem cell growth medium 2 (C-28009 manufactured by Takara Bio Inc.) so as to be 2×10^3 cells/90 μL, and seeded on a 96-well cell culture treatment plate (3585 manufactured by Corning Inc.). To the seeded mesenchymal stem cells was added each 10 μL of the compounds of Examples 1 to 8 diluted to 10-fold concentration with the mesenchymal stem cell growth medium 2, and the cells were cultured for 24 hours. Next, according to the following method, the number of living cells was measured using CellTiter-Glo (Registered Trademark) Luminescent Cell Viability Assay (G7570 manufactured by Promega).
(§2) CellTiter-Glo (Registered Trademark) Substrate was dissolved in CellTiter-Glo (Registered Trademark) Buffer. The prepared solution was added to each well with 100 μL/well, then, 100 μL thereof was apportioned to a 96-well cell culture treatment white plate (356701 manufactured by Corning Inc.), and luminescence was measured with Enspire (manufactured by PerkinElmer). A relative value when the compound untreated group (control) was set to 1 was calculated.

Data set [2] concerns mesenchymal stem cells derived from human bone marrow. Described as above. On the procedure: as §1, §2
The test system of data set [3] is mesenchymal stem cells derived from human umbilical cord matrix. The data set can be described thus: Test Example 8: cytotoxicity, LDH activity in culture solution. The procedure: (§3) Mesenchymal stem cells derived from human bone marrow or mesenchymal stem cells derived from human umbilical cord matrix (#C-12974, #C-12971 manufactured by Takara Bio Inc.) were suspended in mesenchymal stem cell growth medium 2 (C-28009 manufactured by Takara Bio Inc.) so as to be 8×10^4 cells/1.8 mL, and seeded on a 6-well cell culture treatment plate (3516 manufactured by Corning Inc.). To the seeded mesenchymal stem cells was added each 200 μL of the compounds of Examples 1 to 8 diluted to 10-fold concentration with the mesenchymal stem cell growth medium 2, and after culturing for 24 hours, the culture solution was recovered. The activity of lactate dehydrogenase (LDH) contained in the recovered culture solution was measured by using LDH Cytotoxicity Detection Kit (MK401 manufactured by Takara Bio Inc.). To a freeze-dried product of Solution A was added 1 mL of purified water to completely dissolve therein, then, 250 μL of Solution A and 11.25 mL of Solution B were mixed to prepare Solution C. To 100 μL of the recovered culture solution was added 100 μL of Solution C, and the mixture was reacted at room temperature for 30 minutes. Absorbance at 490 nm was measured using Enspire (manufactured by PerkinElmer). Based on the obtained measured values, a relative value when the compound untreated group (control) was set to 1 was calculated.

The subject of data set [4] is mesenchymal stem cells derived from human bone marrow. The data set is described as above. The procedure:
as §3

Data set [5] relates to mesenchymal stem cells derived from human adipose tissue. The data set can be described thus: Test Example 3: promotion of secretion of extracellular vesicles, PS Capture exosome ELISA (anti-CD63). To be noted: 24 hours, absorbance 450 nm minus 620 nm. On the procedure:
Mesenchymal stem cells derived from the human adipose tissue (#C-12977 manufactured by Takara Bio Inc.) were suspended in mesenchymal stem cell growth medium 2 (C-28009 manufactured by Takara Bio Inc.) so as to be 8×10^4 cells/1.8 mL, and seeded on a 6-well cell culture treatment plate (3516 manufactured by Corning Inc.). To the seeded mesenchymal stem cells derived from human adipose tissue was added 200 μL of the compound solution of each of Examples 1 to 8 diluted to 10-fold concentration with the mesenchymal stem cell growth medium 2, or mesenchymal stem cell growth medium alone (control), and after culturing for 24 hours, the culture solution was recovered. Subsequently, the recovered culture solution was centrifuged by 20,000×g at 4° C. for 60 minutes to prepare a culture solution from which cell fragments and Large Extracellular Vesicles were removed. For the detection of the extracellular vesicles, PS Capture (trademark) exosome ELISA kit (anti-mouse IgG POD) (#297-79201 manufactured by FUJIFILM Wako Pure Chemical Corporation) was used.
To Reaction/Washing Buffer (10×) diluted 10-fold with purified water was added 1/100 amount of Exosome Binding Enhancer (100×) to prepare a Reaction/Washing Buffer (1×). The culture solution prepared as mentioned above was diluted 5-fold with the Reaction/Washing Buffer (1×). After washing the Exosome Capture 96-well plate with 300 μL of the Reaction/Washing Buffer (1×) three times, 5-fold diluted each of the culture solution or mesenchymal stem cell growth medium alone in which no cell was cultured was added to each well, and the mixture was reacted at room temperature for 2 hours while shaking with a microplate shaker. After completion of the reaction, the reaction mixture was discarded, and after washing each well with 300 μL of the Reaction/Washing Buffer (1×) three times, 100 μL of Primary Antibody Anti-CD63 (×100) diluted 1,000-fold with the Reaction/Washing Buffer (1×) was added thereto, and the mixture was reacted at room temperature for 1 hour while shaking with a microplate shaker. After completion of the reaction, the reaction mixture was discarded, and after washing each well with 300 μL of the Reaction/Washing Buffer (1×) three times, 100 μL of the Secondary Antibody HRP-conjugated Anti-mouse IgG (100×) diluted 1,000-fold with the Reaction/Washing Buffer (1×) was added thereto, and the mixture was reacted at room temperature for 1 hour while shaking with a microplate shaker. After completion of the reaction, the reaction mixture was discarded, and after washing each well with 300 μL of the Reaction/Washing Buffer (1×) five times, 100 μL of TMB Solution was added, and after shaking for 1 minute with a microplate shaker, the mixture was reacted at room temperature for 30 minutes. After completion of the reaction, 100 μL of Stop Solution was added thereto, and after shaking with a microplate shaker for 5 seconds, the absorbance at 450 nm and 620 nm was measured with Enspire (manufactured by PerkinElmer), and the absorbance at 620 nm was subtracted from the absorbance at 450 nm for each well.
On the technique in general: An ELISA detects its analyte on a solid surface through an enzyme-linked reagent.

Data set [6] deals with 293T cells. As to the kind of experiment: Test Example 13: cell proliferation activity, Cell Count Reagent SF. The procedure: (§4) After 30 minutes, absorbance at 450 nm was measured to evaluate cell proliferation activity.
The subject of data set [7] is 293 cells. Described as above. On the procedure: as §4
Setting [8] is: 2 μM, 24 hours, CellTiter-Glo, control set to 1.
[9] abbreviates: 2 μM, 24 hours, LDH, 490 nm, control set to 1.
Setting [10] is: concentration of at least about 0.3 μM or less.
[11] abbreviates: 20 nM, 24 hours, CellTiter-Glo, control set to 1.
[12] abbreviates: 20 nM, 24 hours, LDH, 490 nm, control set to 1.
Where [13] appears, read: concentration of at least about 0.03 μM (30 nM) or less.

Molecules are shown by their SMILES.

With `CC(=O)O.Cc1cc2c(C(C)C)c(O)c(O)c(C=O)c2c(O)c1-c1c(C)cc2c(C(C)C)c(O)c(O)c(C=O)c2c1O` (racemic) [Example 1, (±)-Gossypol Acetate], the “Relative value of luminescence” value in data set [1] (setting [8]) came to 0.97; in data set [2] (setting [8]), 0.91. For the same compound, the “Relative value of absorbance” value in data set [3] (setting [9]) amounted to 0.78; in data set [4] (setting [9]) it was 0.93. Besides, the Difference in absorbance amounted to 2.15 in data set [5] (Table 1, 2 μM) and 1.97 in data set [5] (Table 2, 2 μM). Besides, the “effect on the proliferative activity” value in data set [6] (setting [10]) and in data set [7] (setting [10]) was “do not significantly affect” throughout.
Turning to `CC(=O)O.Cc1cc2c(C(C)C)c(O)c(O)c(C=O)c2c(O)c1-c1c(C)cc2c(C(C)C)c(O)c(O)c(C=O)c2c1O` [Example 2, (S)-Gossypol Acetate], the “Relative value of luminescence” value worked out at 0.97 in data set [1] (setting [8]) and 0.96 in data set [2] (setting [8]). The “Relative value of absorbance” value in data set [3] (setting [9]) came to 1.04; in data set [4] (setting [9]) it was 0.99. Moreover, the Difference in absorbance in data set [5] (Table 2, 2 μM) was 1.79.
Take `Cc1cc2c(C(C)C)c(O)c(O)cc2c(O)c1-c1c(C)cc2c(C(C)C)c(O)c(O)cc2c1O` [Example 3, (+)-Apogossypol]: the “Relative value of luminescence” value in data set [1] (human, 24 h, 2 μM) turned out to be 1.01; in data set [2] (human, 24 h, 2 μM), 1.00. In addition, the “Relative value of absorbance” value in data set [3] (human, 24 h, 2 μM) is reported as 1.06; in data set [4] (human, 24 h, 2 μM) it was 0.99. This compound also gave a Difference in absorbance in data set [5] (Table 2, 2 μM) of 1.33.
In the case of `Cc1cc2c(C(C)C)c(O)c(O)c(C=O)c2c(O)c1-c1c(C)cc2c(C(C)C)c(O)c(O)c(C=O)c2c1O` [Example 4, (R)-(−)-Gossypol], the “Relative value of luminescence” value was 0.92 in data set [1] (human, 24 h, 2 μM) and 0.86 in data set [2] (human, 24 h, 2 μM). Moreover, the entries for the “Relative value of absorbance” value in data set [3] (setting [9]) and in data set [4] (setting [9]) were 0.88 and 0.97, respectively. For the same compound, the Difference in absorbance in data set [5] (Table 2, 2 μM) was 1.51.
For the compound `COC1=CC(c2cc3ccccc3[nH]2)=N/C1=C\c1[nH]c(C)cc1C.CS(=O)(=O)O` [Example 5, Obatoclax Mesylate], the “Relative value of luminescence” value in data set [1] (setting [11]) is 0.84; in data set [2] (setting [11]), 0.96. Besides, the figures for the “Relative value of absorbance” value in data set [3] (setting [12]) and in data set [4] (setting [12]) were 0.94 and 0.96, respectively. Also, in data set [5] (Table 1, 50 nM), the Difference in absorbance was determined as 2.27. Besides, the “effect on the proliferative activity” value in data set [6] (setting [13]) and in data set [7] (setting [13]) was “do not significantly affect” each time.
For the compound `CCCCCC1=C/C(=C\c2[nH]c(-c3ccc[nH]3)cc2OC)N=C1C.Cl` [Example 6, Prodigiosin Hydrochloride], the entries for the “Relative value of luminescence” value in data set [1] (setting [11]) and in data set [2] (setting [11]) were 0.78 and 0.92, respectively. The “Relative value of absorbance” value in data set [3] (setting [12]) amounted to 0.97; in data set [4] (setting [12]), 0.93. The Difference in absorbance in data set [5] (Table 2, 50 nM) is on record as 2.38.
As for `CCCCCCCCCCCc1ccc(/C=C2\N=C(c3ccc[nH]3)C=C2OC)[nH]1.Cl` [Example 7, Undecylprodigiosin Hydrochloride], the “Relative value of luminescence” value in data set [1] (setting [11]) and in data set [2] (setting [11]) was 0.82 each time. Further, the entries for the “Relative value of absorbance” value in data set [3] (setting [12]) and in data set [4] (setting [12]) were 1.03 and 0.99, respectively. The compound further had a Difference in absorbance in data set [5] (Table 2, 50 nM) of 1.88.
As to `Cc1cc2c(C(=O)NC[C@H](C)c3ccccc3)c(O)c(O)cc2c(O)c1-c1c(C)cc2c(C(=O)NC[C@H](C)c3ccccc3)c(O)c(O)cc2c1O` [Example 8, Sabutoclax], the “Relative value of luminescence” value in data set [1] (setting [8]) is given as 1.00; in data set [2] (setting [8]), 0.93. Further, the “Relative value of absorbance” value is on record as 1.15 in data set [3] (setting [9]) and 1.01 in data set [4] (setting [9]). The same compound displayed a Difference in absorbance in data set [5] (Table 2, 2 μM) of 1.41.
